Results as given in BigSolDB 2.1.

C#C[C@]1(O)CC[C@H]2[C@@H]3CCC4=CC(=O)CC[C@@H]4[C@H]3C(=C)C[C@@]21CC
solubility (mole fraction)
Conditions	278.15 K	283.15 K	288.15 K	293.15 K	298.15 K	303.15 K	308.15 K	313.15 K	318.15 K	323.15 K
in DMF	0.0797	0.084	0.0882	0.093	0.0975	0.102	0.107	0.112	0.117	0.121
in isopropanol	0.00597	0.00697	0.00803	0.00923	0.0106	0.0121	0.0137	0.0156	0.0174	0.0195
in n-propanol	0.00504	0.00579	0.00677	0.00783	0.00901	0.0103	0.0117	0.0132	0.015	0.0168
in water	1.48e-05	1.8e-05	2.15e-05	2.56e-05	3.11e-05	3.69e-05	4.3e-05	5.03e-05	5.85e-05	6.78e-05
